Data as given in patent publication US20190298669A1 (priority 2018, published 2019).

System: A/Mississippi/3/2001 H275Y mutant (H1N1)
Type: cell-based, influenza A virus

`CCOC(=O)C1=C[C@@H](OC(CC)CC)[C@H](NC(C)=O)[C@@H](N)C1` [oseltamivir] showed a reduction of virus of 43%.
